Legend:
Format in all cases: physicochemical
[1] = Thermal Stability of crystalline form A
Description: (§1) A layer of crystalline form A having a thickness of less than 5 mm was place in a flat weighing bottle. […] Samples were taken out at 6 days, 11 days and 16 days and examined for purity by HPLC, appearance and crystalline form. The conditions for the HPLC measurements are as shown below. • Instrument: Agilent 1200HPLC • Column: Agilent Eclipse XDB-C18 4.6*150 mm, 5 μm • Detection wavelength: 254 nm • Mobile phase: A phase 10 mM ammonium acetate (pH=3.5) and B phase acetonitrile [table]

[2] = solubility test of crystalline forms in 0.1M HCl (Chinese Pharmacopoeia 2010); conditions: 300 mg in 6 ml 0.1M HCl, 25° C.±2° C.
Description: The solubility of crystalline forms A, B, C and D was measured in accordance with the solubility test described in “Chinese Pharmacopoeia 2010”, Topic and Requirement 15. A crystalline form of azilsartan was grinded into powder. The powder (300 mg) was added to 6 ml of 0.1M HCl as the solvent at 25° C.±2° C. […] The total test time was 30 minutes. The solid was deemed as dissolved when no solid was detected in the mixture by human eyes. The solubility data of crystalline forms A, B, C and D of azilsartan are as shown below.

[3] = Light Stability of crystalline form A; conditions: light 4500+/−500 Lux
Description: as §1

[4] = Humidity Stability of crystalline form A; conditions: 25° C., RH 90%+/−5%
Description: A layer of crystalline form A having a thickness of less than 5 mm was place in a flat weighing bottle. […] The conditions for the HPLC measurements are as shown below. • Instrument: Agilent 1200HPLC • Column: Agilent Eclipse XDB-C18 4.6*150 mm, 5 μm • Detection wavelength: 254 nm • Mobile phase: A phase 10 mM ammonium acetate (pH=3.5) and B phase acetonitrile [table]

[5] = 0 day (initial sample, before stress)

## CCOc1nc2cccc(C(=O)O)c2n1Cc1ccc(-c2ccccc2-c2noc(=O)[nH]2)cc1 [Form A]
[1]; [5]
  Appearance: White or off-
  Crystalline form: Form A
  RT* (min.) 2.39 (HPLC peak): — (“—” refers to the peak area is less than 3000 or there is no peak)
  RT* (min.) 2.89 (HPLC peak): 0.01%
  RT* (min.) 3.9 (HPLC peak): 0.32%
  RT* (min.) 5.79 (HPLC peak): — (“—” refers to the peak area is less than 3000 or there is no peak)
  RT* (min.) 13.2 (azilsartan peak, purity by HPLC): 99.51%
  RT* (min.) 20.55 (HPLC peak): — (“—” refers to the peak area is less than 3000 or there is no peak)
  RT* (min.) 22.8 (HPLC peak): 0.04%
  RT* (min.) 23.6 (HPLC peak): 0.01%
  RT* (min.) 26.96 (HPLC peak): — (“—” refers to the peak area is less than 3000 or there is no peak)
  RT* (min.) 27.5 (HPLC peak): 0.06%
  RT* (min.) 28.81 (HPLC peak): — (“—” refers to the peak area is less than 3000 or there is no peak)
  RT* (min.) 30.66 (HPLC peak): 0.02%
[1]; 60° C., 6 days
  Appearance: White or off-
  Crystalline form: Form A
  RT* (min.) 2.39 (HPLC peak): — (“—” refers to the peak area is less than 3000 or there is no peak)
  RT* (min.) 2.89 (HPLC peak): 0.02%
  RT* (min.) 3.9 (HPLC peak): 0.33%
  RT* (min.) 5.79 (HPLC peak): 0.01%
  RT* (min.) 13.2 (azilsartan peak, purity by HPLC): 99.47%
  RT* (min.) 20.55 (HPLC peak): 0.01%
  RT* (min.) 22.8 (HPLC peak): 0.04%
  RT* (min.) 23.6 (HPLC peak): 0.02%
  RT* (min.) 26.96 (HPLC peak): 0.01%
  RT* (min.) 27.5 (HPLC peak): 0.06%
  RT* (min.) 28.81 (HPLC peak): 0.01%
  RT* (min.) 30.66 (HPLC peak): 0.03%
[1]; 60° C., 11 days
  Appearance: White or off-
  Crystalline form: Form A
  RT* (min.) 2.39 (HPLC peak): — (“—” refers to the peak area is less than 3000 or there is no peak)
  RT* (min.) 2.89 (HPLC peak): 0.01%
  RT* (min.) 3.9 (HPLC peak): 0.35%
  RT* (min.) 5.79 (HPLC peak): — (“—” refers to the peak area is less than 3000 or there is no peak)
  RT* (min.) 13.2 (azilsartan peak, purity by HPLC): 99.48%
  RT* (min.) 20.55 (HPLC peak): 0.02%
  RT* (min.) 22.8 (HPLC peak): 0.04%
  RT* (min.) 23.6 (HPLC peak): 0.02%
  RT* (min.) 26.96 (HPLC peak): — (“—” refers to the peak area is less than 3000 or there is no peak)
  RT* (min.) 27.5 (HPLC peak): 0.07%
  RT* (min.) 28.81 (HPLC peak): — (“—” refers to the peak area is less than 3000 or there is no peak)
  RT* (min.) 30.66 (HPLC peak): 0.02%
[1]; 60° C., 16 days
  Appearance: White or off-
  Crystalline form: Form A
  RT* (min.) 2.39 (HPLC peak): — (“—” refers to the peak area is less than 3000 or there is no peak)
  RT* (min.) 2.89 (HPLC peak): 0.01%
  RT* (min.) 3.9 (HPLC peak): 0.35%
  RT* (min.) 5.79 (HPLC peak): — (“—” refers to the peak area is less than 3000 or there is no peak)
  RT* (min.) 13.2 (azilsartan peak, purity by HPLC): 99.47%
  RT* (min.) 20.55 (HPLC peak): 0.02%
  RT* (min.) 22.8 (HPLC peak): 0.04%
  RT* (min.) 23.6 (HPLC peak): 0.02%
  RT* (min.) 26.96 (HPLC peak): — (“—” refers to the peak area is less than 3000 or there is no peak)
  RT* (min.) 27.5 (HPLC peak): 0.07%
  RT* (min.) 28.81 (HPLC peak): — (“—” refers to the peak area is less than 3000 or there is no peak)
  RT* (min.) 30.66 (HPLC peak): 0.02%
[2]
  solubility: very soluble
[3]; 6 days
  Appearance: Light yellow
  Crystalline form: Form A
  RT* (min.) 2.39 (HPLC peak): 0.01%
  RT* (min.) 2.89 (HPLC peak): 0.09%
  RT* (min.) 3.9 (HPLC peak): 0.32%
  RT* (min.) 5.79 (HPLC peak): — (“—” refers to the peak area is less than 3000 or there is no peak)
  RT* (min.) 13.2 (azilsartan peak, purity by HPLC): 99.45%
  RT* (min.) 20.55 (HPLC peak): — (“—” refers to the peak area is less than 3000 or there is no peak)
  RT* (min.) 22.8 (HPLC peak): 0.04%
  RT* (min.) 23.6 (HPLC peak): 0.01%
  RT* (min.) 26.96 (HPLC peak): — (“—” refers to the peak area is less than 3000 or there is no peak)
  RT* (min.) 27.5 (HPLC peak): 0.06%
  RT* (min.) 28.81 (HPLC peak): — (“—” refers to the peak area is less than 3000 or there is no peak)
  RT* (min.) 30.66 (HPLC peak): 0.02%
[3]; 11 days
  Appearance: Light yellow
  Crystalline form: Form A
  RT* (min.) 2.39 (HPLC peak): 0.04%
  RT* (min.) 2.89 (HPLC peak): 0.14%
  RT* (min.) 3.9 (HPLC peak): 0.61%
  RT* (min.) 5.79 (HPLC peak): 0.02
  RT* (min.) 13.2 (azilsartan peak, purity by HPLC): 98.71%
  RT* (min.) 20.55 (HPLC peak): 0.07%
  RT* (min.) 22.8 (HPLC peak): 0.06%
  RT* (min.) 23.6 (HPLC peak): 0.03%
  RT* (min.) 26.96 (HPLC peak): 0.01%
  RT* (min.) 27.5 (HPLC peak): 0.29%
  RT* (min.) 28.81 (HPLC peak): 0.01%
  RT* (min.) 30.66 (HPLC peak): 0.03%
[3]; 16 days
  Appearance: Light yellow
  Crystalline form: Form A
  RT* (min.) 2.39 (HPLC peak): 0.05%
  RT* (min.) 2.89 (HPLC peak): 0.22%
  RT* (min.) 3.9 (HPLC peak): 0.34%
  RT* (min.) 5.79 (HPLC peak): — (“—” refers to the peak area is less than 3000 or there is no peak)
  RT* (min.) 13.2 (azilsartan peak, purity by HPLC): 99.24%
  RT* (min.) 20.55 (HPLC peak): — (“—” refers to the peak area is less than 3000 or there is no peak)
  RT* (min.) 22.8 (HPLC peak): 0.04%
  RT* (min.) 23.6 (HPLC peak): 0.01%
  RT* (min.) 26.96 (HPLC peak): — (“—” refers to the peak area is less than 3000 or there is no peak)
  RT* (min.) 27.5 (HPLC peak): 0.09%
  RT* (min.) 28.81 (HPLC peak): — (“—” refers to the peak area is less than 3000 or there is no peak)
  RT* (min.) 30.66 (HPLC peak): — (“—” refers to the peak area is less than 3000 or there is no peak)
[4]; 6 days
  Appearance: White or off-
  Crystalline form: Form A
  RT* (min.) 2.39 (HPLC peak): — (“—” refers to the peak area is less than 3000 or there is no peak)
  RT* (min.) 2.89 (HPLC peak): 0.02%
  RT* (min.) 3.9 (HPLC peak): 0.31%
  RT* (min.) 5.79 (HPLC peak): 0.01
  RT* (min.) 13.2 (azilsartan peak, purity by HPLC): 99.48%
  RT* (min.) 20.55 (HPLC peak): — (“—” refers to the peak area is less than 3000 or there is no peak)
  RT* (min.) 22.8 (HPLC peak): 0.05%
  RT* (min.) 23.6 (HPLC peak): 0.02%
  RT* (min.) 26.96 (HPLC peak): — (“—” refers to the peak area is less than 3000 or there is no peak)
  RT* (min.) 27.5 (HPLC peak): 0.07%
  RT* (min.) 28.81 (HPLC peak): — (“—” refers to the peak area is less than 3000 or there is no peak)
  RT* (min.) 30.66 (HPLC peak): 0.03%
[4]; 11 days
  Appearance: White or off-
  Crystalline form: Form A
  RT* (min.) 2.39 (HPLC peak): — (“—” refers to the peak area is less than 3000 or there is no peak)
  RT* (min.) 2.89 (HPLC peak): 0.02%
  RT* (min.) 3.9 (HPLC peak): 0.33%
  RT* (min.) 5.79 (HPLC peak): — (“—” refers to the peak area is less than 3000 or there is no peak)
  RT* (min.) 13.2 (azilsartan peak, purity by HPLC): 99.51%
  RT* (min.) 20.55 (HPLC peak): — (“—” refers to the peak area is less than 3000 or there is no peak)
  RT* (min.) 22.8 (HPLC peak): 0.04%
  RT* (min.) 23.6 (HPLC peak): 0.02%
  RT* (min.) 26.96 (HPLC peak): — (“—” refers to the peak area is less than 3000 or there is no peak)
  RT* (min.) 27.5 (HPLC peak): 0.06%
  RT* (min.) 28.81 (HPLC peak): — (“—” refers to the peak area is less than 3000 or there is no peak)
  RT* (min.) 30.66 (HPLC peak): 0.03%
[4]; 16 days
  Appearance: White or off-
  Crystalline form: Form A
  RT* (min.) 2.39 (HPLC peak): — (“—” refers to the peak area is less than 3000 or there is no peak)
  RT* (min.) 2.89 (HPLC peak): 0.01%
  RT* (min.) 3.9 (HPLC peak): 0.32%
  RT* (min.) 5.79 (HPLC peak): — (“—” refers to the peak area is less than 3000 or there is no peak)
  RT* (min.) 13.2 (azilsartan peak, purity by HPLC): 99.52%
  RT* (min.) 20.55 (HPLC peak): — (“—” refers to the peak area is less than 3000 or there is no peak)
  RT* (min.) 22.8 (HPLC peak): 0.04%
  RT* (min.) 23.6 (HPLC peak): 0.01%
  RT* (min.) 26.96 (HPLC peak): — (“—” refers to the peak area is less than 3000 or there is no peak)
  RT* (min.) 27.5 (HPLC peak): 0.05%
  RT* (min.) 28.81 (HPLC peak): — (“—” refers to the peak area is less than 3000 or there is no peak)
  RT* (min.) 30.66 (HPLC peak): 0.02%
